Source: PubChem BioAssay (NCI)
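Briefly, cells in 96-well plates were exposed to five compound concentrations for 48 h, and endpoints were estimated by linear interpolation. Abbreviation: GI50, concentration required for 50% inhibition of growth. TGI is the concentration that stops growth completely.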

Legend:
Assay in all cases: NCI anticancer screen, dose series, 48 h
[1] = tested on: TK-10 renal
[2] = tested on: 786-0 renal
[3] = tested on: HL-60(TB) leukemia
[4] = tested on: SW-620 colon
[5] = tested on: SK-MEL-5 melanoma
[6] = tested on: CAKI-1 renal
[7] = tested on: CCRF-CEM leukemia
[8] = tested on: SK-MEL-2 melanoma
[9] = tested on: PC-3 prostate
[10] = tested on: MDA-MB-435

Structure (SMILES)	TGI [1] [µM]	TGI [2] [µM]	TGI [3] [µM]	TGI [4] [µM]	TGI [5] [µM]	TGI [6] [µM]	TGI [7] [µM]	TGI [8] [µM]	TGI [9] [µM]	TGI [10] [µM]	GI50 [1] [µM]	GI50 [9] [µM]	GI50 [3] [µM]	GI50 [4] [µM]	GI50 [5] [µM]	GI50 [6] [µM]	GI50 [10] [µM]	GI50 [8] [µM]	GI50 [7] [µM]
O=C(Cl)c1cc([N+](=O)[O-])cc([N+](=O)[O-])c1	> 100	> 100	> 100	> 100	> 100	> 100	> 100	> 100											
CN(C)CCCN1c2ccc3ccccc3c2Sc2cccc(Cl)c21	5.67	8.84	3.99	4.33	9.59	16.6	3.52	3.75	11.8	3.88									
CC(C)OP(=O)(OC(C)C)c1ncn(-c2ccc([N+](=O)[O-])cc2)n1	> 100		> 100	> 100	> 100	> 100	> 100	> 100											
COc1nc(NC2OCC(OC(C)=O)C(OC(C)=O)C2OC(C)=O)c(N=C(C)C(C)=O)c(=O)n1C (stereo unspecified)	> 100		> 100	> 100	> 100	> 100	> 100	> 100											
Nc1cc(N)c2nc(-c3ccccc3)c(Sc3ccc(F)cc3)nc2c1	42.6		> 100	49.6	33.4	36.6		> 100	> 100	32.9	17.4	29.4	39.3	22.8	15.6	18.1	16.3	38.4	
COc1cccc(C(=O)C(O)c2cccc(OC)c2OC)c1OC (stereo unspecified)	> 100	> 100	> 100	> 100	> 100	> 100	> 100	> 100	> 100	> 100									
O=C(CCc1nnc2s/c(=C\c3ccc(Cl)cc3Cl)c(=O)n12)Nc1cc(Cl)c(Cl)cc1Cl	> 100		> 100	> 100	> 100	> 100	> 100	> 100						> 100	> 100	> 100		> 100	> 100
CN1C(=N\S(=O)(=O)c2ccc(Cl)cc2)/C(=N/N=P(c2ccccc2)(c2ccccc2)c2ccccc2)c2ccccc21	> 100			> 100	> 100	> 100	> 100	> 100											
